Article PMC4335872, “Pharmacokinetic-Pharmacodynamic Analysis of Spiroindolone Analogs and KAE609 in a Murine Malaria Model” (Antimicrobial Agents and Chemotherapy, 2015)
Read-outs that look alike come from different tables or passages of the source.

Columns and labels:
[1] = test system: P. berghei GFP ANKA malaria strain PbGFPCON; assay: Dose-response efficacy in the P. berghei malaria mouse model; assay type: in vivo, female NMRI mice; conditions: for Hill slope: dose vs parasitemia model; for Pmax (maximum parasitemia) / Pmin (minimum parasitemia): sigmoid dose-response model, single oral doses 24 h postinfection; for Pmax (maximum parasitemia) / Pmin (minimum parasitemia) / ED90 (effective dose causing a 90% reduction in parasitemia): parasitemia 72 h postinfection; for ED90 (effective dose causing a 90% reduction in parasitemia): single oral dose 24 h postinfection
Description: All in vivo studies conducted at the Swiss Tropical and Public Health Institute (TPH) adhered to local and national regulations of laboratory animal welfare in Switzerland (permission no. 1731). For in vivo efficacy, female (specific-pathogen-free) […] (NMRI) mice were obtained from Janvier, Le Genest-Saint-Isle, France. Only mice without visible signs of disease were used for the study. Standard laboratory conditions were adopted for husbandry. In vivo antimalarial activity was assessed using groups of five female NMRI mice (20 to 22 g) intravenously infected on day zero with 2 × 10^7 erythrocytes parasitized with P. berghei GFP ANKA malaria strain PbGFPCON (a donation from A. P. Waters and C. J. Janse, Leiden University) ([39]). Untreated control mice typically died between day six and day seven postinfection. Experimental compounds were formulated in 10% ethanol, 30% PEG 400, and 60% of 10% vitamin E TPGS and were administered orally in a volume of 10 ml/kg. Dose-response efficacy studies were conducted for each spiroindolone analog. Doses of 2.5, 5, 10, 30, and 100 mg/kg were administered to groups of 5 mice each as a single dose at 24 h postinfection. Parasitemia, expressed as parasitized red blood cells (pRBCs) of >100 RBCs, was determined 72 h postinfection using standard flow cytometry techniques ([39]).
Data analysis was done using nonlinear mixed-effect modeling (NONMEM version VI 2.0), which analyzed the PD data from multiple dose groups obtained simultaneously from different experiments. Within NONMEM, first-order conditional estimation (FOCE) was the method used ([40]). The log-transformed dose and level of parasitemia were used for analysis. For each compound, a dose-response model was built, and the ED90 (effective dose lowering 90% of parasitemia) values were determined using equation 1 ([41]), where P is the parasitemia measured at any given dose, Pmax is the maximum level of parasitemia, Pmin is the minimum level of parasitemia, EZ50 is the dose required to produce 50% of the maximal effect, s is the Hill slope describing the steepness of the curve, and x is the dose (in mg/kg). 1 P=Pmin +{[Pmax−Pmin]/[1+10^(logEZ50−log x)×s]}

[2] = test system: Caco-2 cells; assay: Caco-2 permeability; assay type: in vitro ADME; conditions: apical to basolateral
Description: (§1) page 5: Running title: PreclinicalPK -PD of antimalarials 73 to high through put form at using in- house standard assa y protocols that are described in the 74 literature. 75 (a)HT-Equilibrium solubilit y at pH 6.8( 1); (b)Parallel Artificial Membrane P ermeability Assa y 76 expressed in % fraction absorbed (FA) ( 2,3 ); (c)Apparent permeability from apical to […] 78 tested; (d)intrinsic clearance in mouse liver micro somes ex pressed as µ L/ min/mg protein, in 79 the presen ce of liver enzym es ( 6); (e)Mous e plasm a protein binding using rapid equilibrium […] 81 82 83 84 85 86 87 88 89 90 91 92 93 94 95 96 97 98 5

[3] = Mouse plasma protein binding, rapid equilibrium dialysis; assay type: in vitro ADME
Description: as §1

[4] = In vivo PK after single p.o. and i.v. dosing in CD-1 mice; design: species or system female CD-1 mice; conditions: for AUC(0-t): read-out: AUC0–24
Experimental: The Institutional Animal Care and Use Committee (IACUC) of the Novartis Institute for Tropical Diseases (NITD), registered with the Agri-Food and Veterinary authority (AVA), Government of Singapore, reviewed and approved all animal experimental protocols. […] The mice were allowed to acclimate before the initiation of the experiments. Feed and water were given ad libitum. […] The blood samples from the mice were collected at 0.02 (for i.v. only), 0.08, 0.25, 0.5, 1, 2, 4, 8, 16, and 24 h postdosing. The dose proportionality studies were conducted with KAE609. […] Additional samples were collected at 32 h and 48 h postdose for the 1- and 5-mg/kg dose groups and up to 72 h postdose for the 100-mg/kg dose group. Groups of three mice were used for each time point. Blood was centrifuged at 13,000 rpm for 7 min at 4°C, and plasma was harvested and stored at -20°C until analysis. […] After vortexing and centrifuging the mixture, the supernatant was removed and 5 μl of sample analyzed. Analyte quantitation was performed by high-performance liquid chromatography coupled with tandem mass spectrometry (LC-MS/MS). […] Instrument control and data acquisition were performed using the Applied Biosystems software Analyst 1.4.2. […] Multiple-reaction monitoring (MRM) was combined with optimized MS parameters to maximize detection specificity and sensitivity. The most intense MRM transitions [338.3/295.1 for (+)-1, 370.1/327.0 for (+)-2, 370.0/326.9 for (+)-3, 354.1/310.8 for (+)-4, 354.1/311.2 for (+)-5, 372.1/329.1 for (+)-6, 388.0/331.8 for (+)-7, 372.1/316.1 for (-)-6, and 388/332 for (-)-7] were used for quantitation. Most compounds were analyzed using electrospray ionization in the negative mode, except (+)-1, which was analyzed using positive mode. The recovery of the compounds from plasma was good and consistent across the concentration range studied. The lower limits of quantification for different compounds ranged from 1.3 to 70 ng/ml in plasma. A calibration curve was freshly prepared and analyzed with every set of study samples. Intraday variability was established with triplicate quality control samples at three concentration levels. The results were accepted if relative standard deviation was <15%. The mean values of the compound concentrations in plasma were obtained from three animals at each time point and plotted against time to generate concentration-time profiles. […] The oral bioavailability (F) was calculated as the ratio between the area under the concentration-time curve from 0 to infinity (AUC0-∞) following oral administration and the AUC0-∞ following intravenous administration corrected for dose (F = […].).

[5] = oral 25 mg/kg vs i.v. 5 mg/kg, CD-1 mice
[6] = single oral dose 25 mg/kg, CD-1 mice
[7] = single oral dose 25 mg/kg, CD-1 mice, plasma
[8] = oral 1.5–105 mg/kg, CD-1 mouse, power regression model

Compound: C[C@H]1Cc2c([nH]c3cc(F)ccc23)[C@@]2(N1)C(=O)Nc1ccc(Cl)cc12 [(+)-5]
- Hill slope [1]: −2.99
- Pmax (maximum parasitemia) [1]: 25.70
- Pmin (minimum parasitemia) [1]: 0.05
- ED90 (effective dose causing a 90% reduction in parasitemia) [1]: 38.1 mg/kg
- Caco-2 Papp (A-B) [2]: 4.33 10-6 cm/sec
- Mouse PPB [3]: 98.5%
- CL ([4]; i.v. 5 mg/kg, CD-1 mice): 11.8 mL/min/kg
- Vss ([4]; i.v. 5 mg/kg, CD-1 mice): 1.6 L/kg
- t1/2 (i.v.) ([4]; i.v. 5 mg/kg, CD-1 mice): 3.8 h
- F (oral bioavailability) [4, 5]: 47%
- AUC0–24 [4, 6]: 17700 ng·h/mL
- Tmax [4, 6]: 0.25 h
- t1/2 (oral) [4, 6]: 4.0 h
- Cmax [4, 7]: 3100 ng/mL

Compound: C[C@H]1Cc2c([nH]c3cc(F)c(F)cc23)[C@@]2(N1)C(=O)Nc1ccc(Cl)cc12 [(+)-6]
- Hill slope [1]: −2.03
- Pmax (maximum parasitemia) [1]: 32.36
- Pmin (minimum parasitemia) [1]: 0.09
- ED90 (effective dose causing a 90% reduction in parasitemia) [1]: 17.3 mg/kg
- Caco-2 Papp (A-B) [2]: 5.55 10-6 cm/sec
- Mouse PPB [3]: 99.5%
- CL ([4]; i.v. 5 mg/kg, CD-1 mice): 8.5 mL/min/kg
- Vss ([4]; i.v. 5 mg/kg, CD-1 mice): 1.6 L/kg
- t1/2 (i.v.) ([4]; i.v. 5 mg/kg, CD-1 mice): 2.9 h
- F (oral bioavailability) [4, 5]: 53%
- AUC0–24 [4, 6]: 26800 ng·h/mL
- Tmax [4, 6]: 2 h
- t1/2 (oral) [4, 6]: 3.2 h
- Cmax [4, 7]: 3100 ng/mL

Compound: C[C@H]1Cc2c([nH]c3cc(Cl)c(F)cc23)[C@@]2(N1)C(=O)Nc1ccc(Cl)cc12 [(+)-7 (KAE609)]
- Complete cure (>30 days survival) ([1]; data not shown): complete cure
- Hill slope [1]: −2.73
- Pmax (maximum parasitemia) [1]: 33.88
- Pmin (minimum parasitemia) [1]: 0.29
- ED90 (effective dose causing a 90% reduction in parasitemia) [1]: 5.6 mg/kg
- Vd ([4]; female, mouse, plasma, iv, i.v. 5 mg/kg, CD-1 mice, read-out: Vss): 2.1 L/kg
- half-life ([4]; female, mouse, plasma, iv, i.v. 5 mg/kg, CD-1 mice, read-out: t1/2 (i.v.) (converted)): 3.4 h
- AUC(0-t) ([4]; female, mouse, plasma, oral 1.5 mg/kg, CD-1 mice, HCl/Solutol HS15/citrate pH 3 formulation): 1000 ng·h/mL
- Cmax ([4]; female, mouse, plasma, oral 1.5 mg/kg, CD-1 mice, HCl/Solutol HS15/citrate pH 3 formulation, read-out: Cmax): 100 ng/mL
- bioavailability ([4]; female, mouse, plasma, oral 1.5 mg/kg, CD-1 mice, HCl/Solutol HS15/citrate pH 3 formulation, read-out: F): 44%
- Tmax ([4]; female, mouse, plasma, oral 1.5 mg/kg, CD-1 mice, HCl/Solutol HS15/citrate pH 3 formulation, read-out: Tmax): 1 h
- half-life ([4]; female, mouse, plasma, oral 1.5 mg/kg, CD-1 mice, HCl/Solutol HS15/citrate pH 3 formulation, read-out: t1/2 (oral) (converted)): 8.7 h
- AUC(0-t) ([4]; female, mouse, plasma, oral 5.6 mg/kg, CD-1 mice, HCl/Solutol HS15/citrate pH 3 formulation): 2600 ng·h/mL
- Cmax ([4]; female, mouse, plasma, oral 5.6 mg/kg, CD-1 mice, HCl/Solutol HS15/citrate pH 3 formulation, read-out: Cmax): 250 ng/mL
- bioavailability ([4]; female, mouse, plasma, oral 5.6 mg/kg, CD-1 mice, HCl/Solutol HS15/citrate pH 3 formulation, read-out: F): 32%
- Tmax ([4]; female, mouse, plasma, oral 5.6 mg/kg, CD-1 mice, HCl/Solutol HS15/citrate pH 3 formulation, read-out: Tmax): 2 h
- half-life ([4]; female, mouse, plasma, oral 5.6 mg/kg, CD-1 mice, HCl/Solutol HS15/citrate pH 3 formulation, read-out: t1/2 (oral) (converted)): 7.5 h
- bioavailability ([4]; female, mouse, plasma, oral 25 mg/kg vs i.v. 5 mg/kg, CD-1 mice, read-out: F (oral bioavailability)): 100%
- AUC(0-t) ([4]; female, mouse, plasma, oral 105 mg/kg, CD-1 mice, HCl/Solutol HS15/citrate pH 3 formulation): 187000 ng·h/mL
- Cmax ([4]; female, mouse, plasma, oral 105 mg/kg, CD-1 mice, HCl/Solutol HS15/citrate pH 3 formulation, read-out: Cmax): 10800 ng/mL
- bioavailability ([4]; female, mouse, plasma, oral 105 mg/kg, CD-1 mice, HCl/Solutol HS15/citrate pH 3 formulation, read-out: F): 100%
- Tmax ([4]; female, mouse, plasma, oral 105 mg/kg, CD-1 mice, HCl/Solutol HS15/citrate pH 3 formulation, read-out: Tmax): 24 h
- half-life ([4]; female, mouse, plasma, oral 105 mg/kg, CD-1 mice, HCl/Solutol HS15/citrate pH 3 formulation, read-out: t1/2 (oral) (converted)): 9.4 h
- AUC(0-t) ([4]; female, mouse, plasma, single oral dose 25 mg/kg, CD-1 mice): 43300 ng·h/mL
- Tmax ([4]; female, mouse, plasma, single oral dose 25 mg/kg, CD-1 mice, read-out: Tmax): 1 h
- half-life ([4]; female, mouse, plasma, single oral dose 25 mg/kg, CD-1 mice, read-out: t1/2 (oral) (converted)): 10 h
- Cmax ([4]; female, mouse, single oral dose 25 mg/kg, CD-1 mice, plasma, read-out: Cmax): 3600 ng/mL
- CL ([4]; i.v. 5 mg/kg, CD-1 mice): 9.7 mL/min/kg
- Dose linearity ([4]; oral 1.5–105 mg/kg, CD-1 mouse): nonlinear behavior
- Slope, log dose vs log AUC0-24 (dose proportionality) [4, 8]: 1.30
- Slope, log dose vs log Cmax (dose proportionality) [4, 8]: 1.18
